Experimental data: patent publication US11076594B2, “Pyrazolone compound or salt thereof, preparation method therefor, herbicide composition and use thereof” (QINGDAO KINGAGROOT CHEMICAL COMPOUNDS CO., LTD., priority 2015, dated 2021)
Each block holds one compound with its values, some of them ahead of it.

Key:
Format in all cases: in vivo
Settings in all cases: post-emergence spray at 4-5 leaf stage, 250 g/ha active ingredient with 450 kg/ha water, rated after 3 weeks in greenhouse
corn = experiment: post-emergence stage experiment, crop (Table 1)
Procedure: (§1) The activity level standard of harmful plant destruction (i.e. growth control rate) is as follows: The above described growth control rate is fresh weight control rate. Monocotyledonous and dicotyledonous weed seeds and main crop seeds (i.e. wheat, corn, rice, soybean, cotton, oilseed, millet and sorghum.) were put into a plastic pot loaded with soil. Then covered with 0.5-2 cm soil, the seeds were allowed to grow in good greenhouse environment. The test plants were treated at 4-5 leaf stage 2-3 weeks after sowing. The test compounds of the invention were dissolved with acetone respectively, then added with 80 tween and diluted by certain amount of water to certain concentration. The solution was sprayed to the plants with a sprayer. Then the plants were cultured for 3 weeks in the greenhouse.

wheat = experiment: post-emergence stage experiment, crop (Table 1)
Procedure: as §1

rorippa indica = experiment: weed control effect in post-emergence stage (Table 1); parameters: key: Level 10: completely dead; Level 9: above 95% growth control rate; Level 8: above 90% growth control rate; Level 7: above 80% growth control rate; Level 6: above 70% growth control rate; Level 5: above 60% growth control rate; Level 4: above 50% growth control rate; Level 3: above 20% growth control rate; Level 2: 5%-20% growth control rate; Level 1: below 5% growth control rate
Procedure: as §1

Indian mallow = experiment: as above; parameters: key: Level 10: completely dead; Level 9: above 95% growth control rate; Level 8: above 90% growth control rate; Level 7: above 80% growth control rate; Level 6: above 70% growth control rate; Level 5: above 60% growth control rate; Level 4: above 50% growth control rate; Level 3: above 20% growth control rate; Level 2: 5%-20% growth control rate; Level 1: below 5% growth control rate
Procedure: as §1

foxtail = experiment: as above; parameters: key: Level 10: completely dead; Level 9: above 95% growth control rate; Level 8: above 90% growth control rate; Level 7: above 80% growth control rate; Level 6: above 70% growth control rate; Level 5: above 60% growth control rate; Level 4: above 50% growth control rate; Level 3: above 20% growth control rate; Level 2: 5%-20% growth control rate; Level 1: below 5% growth control rate
Procedure: as §1

echinochloa = experiment: as above; parameters: key: Level 10: completely dead; Level 9: above 95% growth control rate; Level 8: above 90% growth control rate; Level 7: above 80% growth control rate; Level 6: above 70% growth control rate; Level 5: above 60% growth control rate; Level 4: above 50% growth control rate; Level 3: above 20% growth control rate; Level 2: 5%-20% growth control rate; Level 1: below 5% growth control rate
Procedure: as §1

bidens bipinnata = experiment: as above; parameters: key: Level 10: completely dead; Level 9: above 95% growth control rate; Level 8: above 90% growth control rate; Level 7: above 80% growth control rate; Level 6: above 70% growth control rate; Level 5: above 60% growth control rate; Level 4: above 50% growth control rate; Level 3: above 20% growth control rate; Level 2: 5%-20% growth control rate; Level 1: below 5% growth control rate
Procedure: as §1

crab grass = experiment: as above; parameters: key: Level 10: completely dead; Level 9: above 95% growth control rate; Level 8: above 90% growth control rate; Level 7: above 80% growth control rate; Level 6: above 70% growth control rate; Level 5: above 60% growth control rate; Level 4: above 50% growth control rate; Level 3: above 20% growth control rate; Level 2: 5%-20% growth control rate; Level 1: below 5% growth control rate
Procedure: as §1

rice = experiment: post-emergence stage experiment, crop (Table 1)
Procedure: as §1

SMILES: CC(=O)Oc1c(C(=O)c2ccc(C(F)(F)F)c(N3CCCCC3=O)c2Cl)cnn1C [Compound 030]
effect on crop, Corn (level) (corn): 9 (Level 9: above 95% growth control rate)
effect on crop, Wheat (level) (wheat): 4 (Level 4: above 50% growth control rate)
weed control effect, Rorippa indica (level) (rorippa indica): 10
weed control effect, Indian mallow (level) (Indian mallow): 6 (Level 6: above 70% growth control rate)
weed control effect, Green foxtail (level) (foxtail): 9 (Level 9: above 95% growth control rate)
weed control effect, Echinochloa (level) (echinochloa): 5 (Level 5: above 60% growth control rate)
weed control effect, Bidens bipinnata (level) (bidens bipinnata): 5 (Level 5: above 60% growth control rate)
weed control effect, Crab grass (level) (crab grass): 8 (Level 8: above 90% growth control rate)
effect on crop, Rice (level) (rice): 1 (Level 1: below 5% growth control rate)

SMILES: Cn1cc(C(=O)Oc2c(C(=O)c3ccc(C(F)(F)F)c(-n4cccn4)c3Cl)cnn2C)cn1 [Compound 066]
effect on crop, Corn (level) (corn): 3 (Level 3: above 20% growth control rate)
effect on crop, Wheat (level) (wheat): 0
weed control effect, Indian mallow (level) (Indian mallow): 10
weed control effect, Green foxtail (level) (foxtail): 10
weed control effect, Echinochloa (level) (echinochloa): 6 (Level 6: above 70% growth control rate)
weed control effect, Bidens bipinnata (level) (bidens bipinnata): 6 (Level 6: above 70% growth control rate)
weed control effect, Crab grass (level) (crab grass): 6 (Level 6: above 70% growth control rate)
effect on crop, Rice (level) (rice): 3 (Level 3: above 20% growth control rate)

SMILES: Cn1cc(C(=O)Oc2c(C(=O)c3ccc(C(F)(F)F)c(N4CCCC4=O)c3Cl)cnn2C)cn1 [Compound 017]
effect on crop, Corn (level) (corn): 4 (Level 4: above 50% growth control rate)
effect on crop, Wheat (level) (wheat): 1 (Level 1: below 5% growth control rate)
weed control effect, Indian mallow (level) (Indian mallow): 10
weed control effect, Green foxtail (level) (foxtail): 10
weed control effect, Echinochloa (level) (echinochloa): 6 (Level 6: above 70% growth control rate)
weed control effect, Bidens bipinnata (level) (bidens bipinnata): 5 (Level 5: above 60% growth control rate)
weed control effect, Crab grass (level) (crab grass): 10
effect on crop, Rice (level) (rice): 7 (Level 7: above 80% growth control rate)

SMILES: Cc1nn(C)cc1C(=O)Oc1c(C(=O)c2ccc(C(F)(F)F)c(N3CCCCCC3=O)c2Cl)c(C2CC2)nn1C [Compound 062]
effect on crop, Corn (level) (corn): 1 (Level 1: below 5% growth control rate)
effect on crop, Wheat (level) (wheat): 3 (Level 3: above 20% growth control rate)
weed control effect, Rorippa indica (level) (rorippa indica): 10
weed control effect, Indian mallow (level) (Indian mallow): 10
weed control effect, Green foxtail (level) (foxtail): 3 (Level 3: above 20% growth control rate)
weed control effect, Echinochloa (level) (echinochloa): 7 (Level 7: above 80% growth control rate)
weed control effect, Crab grass (level) (crab grass): 8 (Level 8: above 90% growth control rate)
effect on crop, Rice (level) (rice): 5 (Level 5: above 60% growth control rate)

SMILES: Cc1cnn(-c2c(C(F)(F)F)ccc(C(=O)c3c(C4CC4)nn(C)c3OC(=O)c3cnn(C)c3)c2Cl)c1 [Compound 091]
effect on crop, Corn (level) (corn): 1 (Level 1: below 5% growth control rate)
effect on crop, Wheat (level) (wheat): 1 (Level 1: below 5% growth control rate)
weed control effect, Indian mallow (level) (Indian mallow): 10
weed control effect, Green foxtail (level) (foxtail): 7 (Level 7: above 80% growth control rate)
weed control effect, Echinochloa (level) (echinochloa): 6 (Level 6: above 70% growth control rate)
weed control effect, Bidens bipinnata (level) (bidens bipinnata): 5 (Level 5: above 60% growth control rate)
weed control effect, Crab grass (level) (crab grass): 2 (Level 2: 5%-20% growth control rate)
effect on crop, Rice (level) (rice): 6 (Level 6: above 70% growth control rate)

SMILES: Cc1nn(C)c(OC(=O)c2cnn(C)c2)c1C(=O)c1ccc(C(F)(F)F)c(N2CCCCC2=O)c1Cl [Compound 039]
effect on crop, Corn (level) (corn): 2 (Level 2: 5%-20% growth control rate)
weed control effect, Rorippa indica (level) (rorippa indica): 10
weed control effect, Indian mallow (level) (Indian mallow): 10
weed control effect, Green foxtail (level) (foxtail): 10
weed control effect, Echinochloa (level) (echinochloa): 10
weed control effect, Bidens bipinnata (level) (bidens bipinnata): 2 (Level 2: 5%-20% growth control rate)
weed control effect, Crab grass (level) (crab grass): 9 (Level 9: above 95% growth control rate)
effect on crop, Rice (level) (rice): 6 (Level 6: above 70% growth control rate)

SMILES: Cn1nc(C2CC2)c(C(=O)c2ccc(C(F)(F)F)c(N3CCCCCC3=O)c2Cl)c1O [Compound 059]
effect on crop, Corn (level) (corn): 1 (Level 1: below 5% growth control rate)
effect on crop, Wheat (level) (wheat): 2 (Level 2: 5%-20% growth control rate)
weed control effect, Rorippa indica (level) (rorippa indica): 10
weed control effect, Indian mallow (level) (Indian mallow): 10
weed control effect, Green foxtail (level) (foxtail): 9 (Level 9: above 95% growth control rate)
weed control effect, Echinochloa (level) (echinochloa): 6 (Level 6: above 70% growth control rate)
weed control effect, Crab grass (level) (crab grass): 5 (Level 5: above 60% growth control rate)
effect on crop, Rice (level) (rice): 3 (Level 3: above 20% growth control rate)

Second part, led by results:

effect on crop, Corn (level) (corn): 0
SMILES: CCc1nn(CC)c(O)c1C(=O)c1ccc(C(F)(F)F)c(N2CCCCCC2=O)c1Cl [Compound 122]
effect on crop, Wheat (level) (wheat): 1 (Level 1: below 5% growth control rate)
weed control effect, Rorippa indica (level) (rorippa indica): 0
weed control effect, Indian mallow (level) (Indian mallow): 5 (Level 5: above 60% growth control rate)
weed control effect, Green foxtail (level) (foxtail): 10
weed control effect, Echinochloa (level) (echinochloa): 9 (Level 9: above 95% growth control rate)
weed control effect, Bidens bipinnata (level) (bidens bipinnata): 5 (Level 5: above 60% growth control rate)
weed control effect, Crab grass (level) (crab grass): 3 (Level 3: above 20% growth control rate)
effect on crop, Rice (level) (rice): 5 (Level 5: above 60% growth control rate)

effect on crop, Wheat (level) (wheat): 0
SMILES: Cc1cnn(-c2c(C(F)(F)F)ccc(C(=O)c3c(C)nn(C)c3OC(=O)c3cnn(C)c3)c2Cl)c1 [Compound 087]
effect on crop, Corn (level) (corn): 4 (Level 4: above 50% growth control rate)
weed control effect, Indian mallow (level) (Indian mallow): 10
weed control effect, Green foxtail (level) (foxtail): 10
weed control effect, Echinochloa (level) (echinochloa): 6 (Level 6: above 70% growth control rate)
weed control effect, Bidens bipinnata (level) (bidens bipinnata): 5 (Level 5: above 60% growth control rate)
weed control effect, Crab grass (level) (crab grass): 9 (Level 9: above 95% growth control rate)
effect on crop, Rice (level) (rice): 6 (Level 6: above 70% growth control rate)

effect on crop, Wheat (level) (wheat): 0
effect on crop, Rice (level) (rice): 2 (Level 2: 5%-20% growth control rate)
SMILES: Cc1cnn(-c2c(C(F)(F)F)ccc(C(=O)c3cnn(C)c3OC(=O)c3cnn(C)c3)c2Cl)c1 [Compound 083]
effect on crop, Corn (level) (corn): 4 (Level 4: above 50% growth control rate)
weed control effect, Indian mallow (level) (Indian mallow): 10
weed control effect, Green foxtail (level) (foxtail): 8 (Level 8: above 90% growth control rate)
weed control effect, Echinochloa (level) (echinochloa): 6 (Level 6: above 70% growth control rate)
weed control effect, Bidens bipinnata (level) (bidens bipinnata): 5 (Level 5: above 60% growth control rate)
weed control effect, Crab grass (level) (crab grass): 6 (Level 6: above 70% growth control rate)

effect on crop, Wheat (level) (wheat): 2 (Level 2: 5%-20% growth control rate)
SMILES: Cc1nn(C)cc1C(=O)Oc1c(C(=O)c2ccc(C(F)(F)F)c(-n3cccn3)c2Cl)c(C2CC2)nn1C [Compound 075]
effect on crop, Corn (level) (corn): 3 (Level 3: above 20% growth control rate)
weed control effect, Rorippa indica (level) (rorippa indica): 10
weed control effect, Indian mallow (level) (Indian mallow): 10
weed control effect, Green foxtail (level) (foxtail): 10
weed control effect, Echinochloa (level) (echinochloa): 6 (Level 6: above 70% growth control rate)
weed control effect, Crab grass (level) (crab grass): 4 (Level 4: above 50% growth control rate)
effect on crop, Rice (level) (rice): 7 (Level 7: above 80% growth control rate)

effect on crop, Wheat (level) (wheat): 2 (Level 2: 5%-20% growth control rate)
SMILES: Cn1cc(C(=O)Oc2c(C(=O)c3ccc(C(F)(F)F)c(-n4cccn4)c3Cl)c(C3CC3)nn2C)cn1 [Compound 076]
effect on crop, Corn (level) (corn): 4 (Level 4: above 50% growth control rate)
weed control effect, Indian mallow (level) (Indian mallow): 10
weed control effect, Green foxtail (level) (foxtail): 10
weed control effect, Echinochloa (level) (echinochloa): 7 (Level 7: above 80% growth control rate)
weed control effect, Bidens bipinnata (level) (bidens bipinnata): 4 (Level 4: above 50% growth control rate)
weed control effect, Crab grass (level) (crab grass): 5 (Level 5: above 60% growth control rate)
effect on crop, Rice (level) (rice): 9 (Level 9: above 95% growth control rate)
